Values joined by “and” are separate entries in the source; they are usually repeats but may differ in a detail not shown here. Equal values may be shown once.
What was measured:
[1] = biological target: T1, androgen receptor (rat ventral prostate cytosol) (Rattus norvegicus, UniProt P15207); assay: Androgen Receptor Binding Using Rat Ventral Prostate Cytosol; settings: for IC50: read-out: IC50 (nM), Androgen Receptor Binding (Rat Cytosol)
T1 construct: from tissue; host or cells: ventral prostate cytosol of castrated male Sprague Dawley or Wistar rats
T1 sequence (P15207 1-902): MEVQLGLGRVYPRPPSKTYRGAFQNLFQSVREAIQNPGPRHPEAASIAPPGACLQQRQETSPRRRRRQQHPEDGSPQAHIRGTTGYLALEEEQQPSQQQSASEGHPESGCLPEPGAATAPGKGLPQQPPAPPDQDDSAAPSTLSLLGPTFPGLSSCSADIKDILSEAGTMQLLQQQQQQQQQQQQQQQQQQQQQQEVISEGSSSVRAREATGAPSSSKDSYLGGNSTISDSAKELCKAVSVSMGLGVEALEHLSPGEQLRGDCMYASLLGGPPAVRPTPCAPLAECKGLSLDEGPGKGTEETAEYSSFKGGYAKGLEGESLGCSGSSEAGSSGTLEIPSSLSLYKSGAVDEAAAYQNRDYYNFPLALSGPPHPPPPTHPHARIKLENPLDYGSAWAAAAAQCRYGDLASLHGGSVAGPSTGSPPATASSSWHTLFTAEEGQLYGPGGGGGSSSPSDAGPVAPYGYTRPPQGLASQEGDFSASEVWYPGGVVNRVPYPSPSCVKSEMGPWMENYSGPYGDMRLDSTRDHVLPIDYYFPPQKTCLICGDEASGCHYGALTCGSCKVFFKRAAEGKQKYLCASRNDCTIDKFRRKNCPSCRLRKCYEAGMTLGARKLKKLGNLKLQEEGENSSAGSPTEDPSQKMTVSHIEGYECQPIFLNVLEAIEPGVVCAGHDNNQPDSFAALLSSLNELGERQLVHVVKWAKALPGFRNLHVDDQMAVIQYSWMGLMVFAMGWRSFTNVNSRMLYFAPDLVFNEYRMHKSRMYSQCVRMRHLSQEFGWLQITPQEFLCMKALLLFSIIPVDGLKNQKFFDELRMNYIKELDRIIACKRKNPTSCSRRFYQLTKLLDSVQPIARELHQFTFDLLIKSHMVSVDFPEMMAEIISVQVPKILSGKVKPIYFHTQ
Description: The assay was run on a 96 well plate with each well filled with a total reaction volume 150 μL, of a solution containing 5 pmol androgen receptor LBD (Panvera) or 30 μL of freshly prepared rat cytosol, 0.5 nM [^3H] […] (TED buffer contains 10 mM Tris.HCl pH 7.4, 1 mM sodium molybdate, 1.5 mM EDTA, 1 mM DTT and 10% (v/v) glycerol.)
On day one, the solution containing receptor, tracer and TED buffer was distributed into a 96 well plate. Diluted test compound or control vehicle was then added to individual wells and the plate incubated at 4° C. overnight.
On day two, to each well was then added 20 μL human γ-globulin (ICN 823102), prepared at 25 mg/ml in TE pH 8.0, and 55 μL 40% polyethylene glycol 8000 (J T Baker U222-08), prepared in TE pH 8.0. The plate was incubated at 4° C. for 60 minutes. During incubation, the harvester was rinsed with 10% PEG 8000, prepared in TE pH 8.0, and a GF/C Unifilter-96 was pre-wet with 10% PEG. The binding reaction was filtered, the retentate was washed three times with 10% PEG and dried under vacuum for a couple of minutes, then dried at 50° C. for 5 min and the plate was bottom sealed. Next, 25 μL of Microscint-20 (Packard) was added to the filter wells and the plate was top sealed. The plate wells were then counted on a TopCount (Packard).
Rat Prostate Cytosol Preparation:
Male Sprague Dawley or Wistar rats (Charles River, 200-300 g) were used for each preparation. The day before preparing the cytosol, the rats were castrated using standard surgical procedures.
The rats were euthanized by carbon dioxide asphyxiation. The rat prostates were quickly removed and placed on ice in pre-chilled, pre-weighed 50 mL plastic tubes. No more than five prostates were placed into one tube. The tubes were then weighed and the prostate tissue wet weights calculated.
To the chilled prostate tissue was then added […] of chilled homogenization buffer. The homogenization buffer was freshly prepared by mixing 10 mM Tris.HCl, pH 7.4, 1 mM sodium molybdate, 1.5 mM EDTA, 1 mM dithiothreitol, 10% (v/v) glycerol and 1% protease inhibitor cocktail (Sigma P 8340).
The prostate tissue was homogenized in a cold room using a pre-chilled Polytron PT3000 homogenizer (Brinkmann). Homogenization was performed at a speed setting of 20, three times for 10 sec bursts. The tubes containing the prostate tissue was kept on ice while homogenizing. The homogenate was allowed to rest on ice for 20 sec between bursts.
The homogenate was then placed into pre-chilled 3 mL polycarbonate ultracentrifuge tubes and centrifuged in the TLA-100 rotor of a TL-100 ultracentrifuge for 12 min at 100,000 rpm at 4° C. The resulting supernatant was stored in 1 mL aliquots at −80° C. until needed.
Binding to the androgen receptor was determined according to the protocol described in Example 86 using the above prepared rat cytosol.
% Inhibition was determined by testing dilutions of the test compound (usually duplicates of 10 μM) in the binding assay. Counts per well were measured and percents of inhibition determined. […] Counts per well were measured and IC50s determined by linear regression.

[2] = system: testosterone-enhanced ventral prostate and seminal vesicle weights; assay: Ventral Prostate and Seminal Vesicle Weight in vivo Assay; set-up: species or system rat; settings: immature castrated male Sprague Dawley rats, once daily for five days, usually orally 40 mg/kg, with testosterone propionate 2 mg/kg s.c. Also: key: 'active' if the non weight adjusted prostate weight was ≦40 mg or the % Inhibition prostate weight, body weight adjusted was ≧40% @ 2 mg/day dosage; ID50's, if determined, of ≦15 mg/day also indicated an 'active' compound; listed herein as 'inactive' as they did not meet the specified criteria defined above.
How it was run: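 Immature castrated male Sprague Dawley rats (~50 g) were dosed once daily for five days with compound, usually orally at 40 mg/kg in cyclodextrin or methylcellulose vehicle. Testosterone propionate was co-dosed subcutaneously at 2 mg/kg. On day six, ventral prostate and seminal vesicle wet weights were measured; activity was judged on prostate weight or body-weight-adjusted % inhibition.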

[3] = biological target: T2, androgen receptor (AdEasy+rAR, L929 cells) (Rattus norvegicus, UniProt P15207); assay: L929 Androgen Receptor Functional Assay, Adenovirus Transduction; assay type: cell-based; settings: agonist testing, 3000 nM
T2 construct: expressed in transfected cells; host or cells: L929 cells transduced with adenovirus AdEasy+rAR
T2 sequence (P15207 1-902): T1 sequence (P15207 1-902)
Description: L929 cells were plated in 96-well plates at 20,000 cells per well, in DMEM/F12 (GIBCO) containing 10% (v/v) charcoal-treated fetal bovine serum (Hyclone) and lacking phenol red. The plates were then incubated overnight at 37° C. in 5% (v/v) humidified CO2.
Test compound dilutions were prepared in 100% (v/v) DMSO, if necessary. Each dilution was made to 1250× the final desired assay concentration.
First, 2 mL of DMEM/F12 lacking phenol red was pipetted into the wells of a 2-mL 96-well assay block. Next, 4 μL of the 1250× test compound dilutions were pipetted into each well of the assay block. The mixtures within the well were then carefully mixed by pipette.
In a 15 mL or 50 mL sterile centrifuge tube, a 2.5 nM (2.5×) dilution of R1881 (methyl-trienolone) in DMEM/F12 lacking phenol red was prepared.
In a second 15 mL or 50 mL centrifuge tube a solution containing an equal volume of DMEM to the first and an equal volume of 100% (v/v) DMSO to the volume of R1881 used in the first tube was prepared.
In a 15 mL or 50 mL sterile centrifuge tube, a dilution in DMEM/F12 of the adenovirus AdEasy+rAR at an moi of 1:500 per well was prepared.
The medium was removed from the 96-well plates by inversion and dried, inverted, very briefly. As soon as possible after medium removal, 40 μL of the diluted unlabeled test compound was added to each well, in duplicate. To each well designated for antagonist testing was added 40 μL of the 2.5 nM R1881 dilution to the wells for antagonist testing. To each well designated for agonist testing was added 40 μL of the DMSO dilution. Then 20 μL of the diluted adenovirus were added to all wells. The plates were incubated for 48 hours at 37° C. in 5% (v/v) humidified CO2.
To each well was added 100 μL of Steady-Glo luciferase assay substrate (Promega) and the plates were placed on a rotary shaker for 1 min. The plates were then incubated at room temperature in the dark for one hour. The contents of each well were then transferred to a white microtiter plate (Packard) and read on a Luminoskan Ascent (Thermo Lab Systems).
L929 AR percent activity was determined by testing dilutions of the test compound using a concentration of 3000 nM unless otherwise noted. L929 percent inhibition was determined by testing dilutions of the test compound using a concentration of 3000 nM. […] Luciferase activity per well were measured and EC50s and IC50s determined by linear regression.

SMILES	% Inhibition, Androgen Receptor Binding (Rat Cytosol) ([1]; Concentration 1000 nM) [%]	IC50 [1] [nM]	active / inactive: inhibition of testosterone-enhanced prostate weight [2]	% Activity, L929 androgen receptor functional assay [3] [%]	other results
OC1(c2cc3cc(Cl)c(C(F)(F)F)cc3[nH]2)CCN(Cc2ccc(Cl)c(Cl)c2)CC1 [Compound 36]	−34	> 100000	–	–	–
O=[N+]([O-])c1cc2cc(C3(O)CCN(Cc4ccc(Cl)cc4)CC3)[nH]c2cc1C(F)(F)F [Compound 41]	–	2300	–	–	% Inhibition, Androgen Receptor Binding (Rat Cytosol) ([1]; Concentration 1000 nM, 1 µM): 20%
O=[N+]([O-])c1cc2cc(C3(O)CCN(Cc4ccc(Cl)cc4)CC3)[nH]c2cc1C(F)(F)F [Compound 40]	–	3800	–	–	% Inhibition, Androgen Receptor Binding (Rat Cytosol) ([1]; Concentration 1000 nM, 1 µM): −2.5%
OC1(c2cc3cc(Cl)c(C(F)(F)F)cc3[nH]2)CCN(Cc2ccc(Cl)cc2)CC1 [Compound 31]	20	4050	–	–	–
COc1cccc(CN2CCC(O)(c3cc4cc(Cl)c(C(F)(F)F)cc4[nH]3)CC2)c1 [Compound 29]	−1.8	4700	–	–	–
OC1(c2cc3cc(Cl)c(C(F)(F)F)cc3[nH]2)CCN(Cc2ccc(F)cc2)CC1 [Compound 28]	−3.4	7000	–	–	–
CC(C)(C)c1ccc(CN2CCC(O)(c3cc4cc(Cl)c(C(F)(F)F)cc4[nH]3)CC2)cc1 [Compound 32]	34	43000	–	–	–
CCCSCC(C)(O)c1cc2cc(Cl)c(C(F)(F)F)cc2[nH]1 (racemic) [Compound 196]	–	–	inactive	13	–
COc1cccc(CN2CCC(O)(c3cc4cc([N+](=O)[O-])c(C(F)(F)F)cc4[nH]3)CC2)c1 [Compound 39]	–	> 6100	–	–	% Inhibition, Androgen Receptor Binding (Rat Cytosol) ([1]; Concentration 1000 nM, 1 µM): 6%
Cc1ccc(CN2CCC(O)(c3cc4cc(Cl)c(C(F)(F)F)cc4[nH]3)CC2)cc1 [Compound 30]	−7.7	4100	–	–	–
CC(O)(CS(=O)(=O)c1ccc(F)cc1)c1cc2cc(C#N)c(C(F)(F)F)cc2[nH]1 (centres unmarked) [Compound 110]	–	–	–	–	inhibition at 1 µM ([1]; Concentration 1000 nM, read-out: % Inhibition, Androgen Receptor Binding (Rat Cytosol)): 58.5%
CS(=O)(=O)n1c(C2(O)CCN(C(=O)c3ccc(Cl)cc3)CC2)cc2cc(Cl)c(C(F)(F)F)cc21 [Compound 24]	2	–	–	–	–
CCS(=O)(=O)CC(C)(O)c1cc2cc(C#N)c(C(F)(F)F)cc2n1C (racemic) [Compound 240]	–	–	inactive	0	–
COc1ccc(CN2CCC(O)(c3cc4cc(Cl)c(C(F)(F)F)cc4[nH]3)CC2)cc1 [Compound 35]	−19	4200	–	–	–
CC[S+]([O-])CC(C)(O)c1cc2cc(C(F)(F)F)c([N+](=O)[O-])cc2[nH]1 (mixture of isomers) [Compound 230]	–	–	active	0	–
CC(O)(CSCc1ccco1)c1cc2cc([N+](=O)[O-])c(C(F)(F)F)cc2[nH]1 (racemic) [Compound 198]	–	–	inactive	7	–
CSC(C)(O)c1cc2cc([N+](=O)[O-])c(C(F)(F)F)cc2[nH]1 (racemic) [Compound 267]	–	–	inactive	–	% Activity, L929 androgen receptor functional assay ([3]; 3 µM): −5% and 0%
CSCCC(C)(O)c1cc2cc(Cl)c(C(F)(F)F)cc2[nH]1 (racemic) [Compound 51]	–	–	inactive	2	–
CC[S+]([O-])CC(O)c1cc2cc([N+](=O)[O-])c(C(F)(F)F)cc2[nH]1 (mixture of isomers) [Compound 180]	–	–	inactive	2	–
CCSCC(C)(O)c1cc2cc([N+](=O)[O-])c(C(F)(F)F)cc2[nH]1 (racemic) [Compound 221]	–	–	inactive	−1	–

— patent US7282507B2, “Indole derivatives as selective androgen receptor modulators (SARMS)” (Janssen Pharmaceutica N.V., priority 2004, dated 2007)
